Reference: ChEMBL document CHEMBL1130936, “Design, synthesis, and biological activity of novel purine and bicyclic pyrimidine factor Xa inhibitors” (Bioorg Med Chem Lett, 1998)

Tests used:
Prothrombin = Prothrombin (Homo sapiens, UniProt P00734); assay: Compound was tested for inhibitory activity against human thrombin
Serine protease 1 = target: T1, Serine protease 1 (Bos taurus, UniProt P00760); assay: Compound was tested for inhibitory activity against bovine trypsin
T1 sequence (P00760 whole entry): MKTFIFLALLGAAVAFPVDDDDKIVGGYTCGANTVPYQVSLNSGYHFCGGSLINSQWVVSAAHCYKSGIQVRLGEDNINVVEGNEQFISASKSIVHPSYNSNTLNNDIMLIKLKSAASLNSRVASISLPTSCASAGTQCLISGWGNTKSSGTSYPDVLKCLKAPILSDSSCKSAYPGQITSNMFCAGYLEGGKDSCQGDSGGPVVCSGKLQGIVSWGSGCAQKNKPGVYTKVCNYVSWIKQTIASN

Coagulation factor X = Coagulation factor X (Homo sapiens, UniProt P00742); assay: Compound was tested for inhibitory activity against human Coagulation factor X
Chain of Coagulation factor X (P00742 41-179 limits assumed): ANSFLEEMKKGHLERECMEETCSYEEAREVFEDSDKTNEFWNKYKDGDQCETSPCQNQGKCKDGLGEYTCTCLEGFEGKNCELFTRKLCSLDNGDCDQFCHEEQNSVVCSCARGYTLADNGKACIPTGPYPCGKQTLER
Chain of Coagulation factor X (P00742 235-488 limits assumed): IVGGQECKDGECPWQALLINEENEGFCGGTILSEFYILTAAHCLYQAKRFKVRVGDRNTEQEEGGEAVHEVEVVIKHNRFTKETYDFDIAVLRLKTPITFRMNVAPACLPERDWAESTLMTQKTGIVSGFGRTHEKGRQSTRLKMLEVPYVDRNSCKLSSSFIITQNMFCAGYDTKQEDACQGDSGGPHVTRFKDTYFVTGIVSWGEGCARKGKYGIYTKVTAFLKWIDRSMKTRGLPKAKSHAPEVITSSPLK

Compound | Ki (Prothrombin) [nM] | Ki (Serine protease 1) [nM] | Ki (Coagulation factor X) [nM]
CN(C)C(=O)c1cccc(Oc2nc(Oc3cc(C(=N)N)ccc3O)nc3c2NC(=O)CN3)c1 | > 5000 | 2200 | 81
Cc1c(F)c(Oc2cccc(C(=N)N)c2)nc(Oc2cccc(C(=O)N(C)C)c2)c1F | > 5000 | – | –
CN(C)C(=O)c1cccc(Oc2nc(Oc3cc(C(=N)N)ccc3O)nc3c2NC(=O)CO3)c1 | > 5000 | > 5000 | 106
Cc1nc2c(Oc3cccc(C(=O)N(C)C)c3)nc(Oc3cc(C(=N)N)ccc3O)nc2n1Cc1ccccc1 | 1300 | 760 | 10

Stronger by Ki (Prothrombin), values ahead:

Ki (Prothrombin) [nM] | Ki (Serine protease 1) [nM] | Ki (Coagulation factor X) [nM] | Compound
1000 | 320 | 19 | CN(C)C(=O)c1cccc(Oc2nc3c(c(Oc4cc(C(=N)N)ccc4O)n2)NC(=O)CN3)c1
710 | 150 | 0.42 | Cc1nc2c(Oc3cc(C(=N)N)ccc3O)nc(Oc3cccc(C(=O)N(C)C)c3)nc2n1Cc1ccccc1
430 | 30 | – | N=C(N)c1ccc(/C=C2/CCCC/C(=C/c3ccc(C(=N)N)cc3)C2=O)cc1
